Measurements: US12678438B2, “Treatment of cancer with CDK inhibitors” (THE TRUSTEES OF THE UNIVERSITY OF PENNSYLVANIA, priority 2019, dated 2026)

Key:
MED1-AR complex = test: Immunoprecipitation of endogenous MED1-AR complex; assay type: cell-based, human; settings: VCaP and LNCaP nuclear extracts, 100 nM THZ1, 6 h
Description: For endogenous immunoprecipitation experiments, nuclear extracts were obtained from VCaP and LNCaP cells using NE-PER nuclear extraction kit (Thermo Scientific, 78835). Nuclear pellet was then lysed in IP buffer (20 mM Tris pH7.5, 150 mM NaCl, 1% Triton-X 100, Protease/Phosphatase Inhibitor) by sonication. Nuclear lysates (0.35-1.0 mg) were pre-cleaned by incubation with protein G Dynabeads (Life Technologies) for 1 h on a rotator at 4° C. 5 μg antibody was added to the pre-cleared lysates and incubated on a rotator at 4° C. overnight. Protein G Dynabeads were then added for 1 h. Beads were washed twice in IP buffer, containing 300 mM NaCl, and resuspended in 40 μL of 2× loading buffer and boiled at 95° C. for […] for separation of the protein and beads. Samples were then analyzed by SDS-PAGE and western blotting as described above.

[1] = tested on: MED1 and AR recruitment to the chromatin; test: ChIP-seq of genome-wide MED1 and AR binding; assay type: cell-based, human; settings: DHT-treated VCaP and LNCaP, THZ1
Description: ChIP was performed using iDeal ChIP-seq Kit for Transcription Factors (Diagenode, C01010170) according to manufacturer's protocol. In brief, the cells were crosslinked with 1% formaldehyde in culture medium for 10 min at room temperature. Cross-linking was terminated by the addition of 1/10 volume 1.25 M glycine for 5 min at room temperature followed by cell lysis and sonication (Bioruptor, Diagenode), resulting in an average chromatin fragment size of 200 bp. Chromatin equivalent to 5×10^6 cells was isolated and incubated with 10 μg antibody overnight at 4° C. (MED1, H3-acetyl K27, AR, and IgG (Diagenode). ChIP-seq libraries were prepared from the ChIP-enriched DNA samples using the TruSeq ChIP Library Preparation Kit (Illumina, IP-202-1012, IP-202-1024) and protocol. In brief, ChIP-enriched DNA (1-10 ng) was converted to blunt-ended fragments. A single A-base was added to fragment ends followed by ligation of Illumina adaptors. The adaptor-modified DNA fragments were enriched by PCR using the Illumina Barcode primers and Phusion DNA polymerase. PCR products were size selected using 3% NuSieve agarose gels (Lonza) followed by gel extraction using QIAEX II reagents (QIAGEN). Libraries were quantified with the Bioanalyzer 2100 (Agilent) and sequenced on the Illumina NextSeq 500 Sequencer (75 nucleotide read length).
Sequencing reads were quality checked with FASTQC (www.bioinformatics.babraham.ac.uk/projects/fastqc) and aligned to the GRCh37 (release 27) genome using the STAR v2.5.1 aligner with default settings. PCR duplicate reads in the aligned bam files were removed using samtools, bam files were converted to CPM normalized bigwig tracks using deeptools, and viewed using the Integrated Genomics Viewer or the UCSC genome browser. Single end reads were extended up to the fragment length (200 bp) along the read direction.
The enrichment peaks for the various transcription factors and histone marks were computed using MACS2, with default settings. Regions found to ubiquitously enriched across a number of next-generation sequencing experiments, also known as the blacklisted peaks (sites.google.com/site/anshulkundaje/projects/blacklists), were excluded in all subsequent analysis.

CDK7 = CDK7 (Homo sapiens, UniProt P50613); test: Luminescence-based CDK7 kinase activity on MED1 peptide; assay type: biochemical; settings: varying concentration of THZ1
CDK7, sequence (P50613 whole entry): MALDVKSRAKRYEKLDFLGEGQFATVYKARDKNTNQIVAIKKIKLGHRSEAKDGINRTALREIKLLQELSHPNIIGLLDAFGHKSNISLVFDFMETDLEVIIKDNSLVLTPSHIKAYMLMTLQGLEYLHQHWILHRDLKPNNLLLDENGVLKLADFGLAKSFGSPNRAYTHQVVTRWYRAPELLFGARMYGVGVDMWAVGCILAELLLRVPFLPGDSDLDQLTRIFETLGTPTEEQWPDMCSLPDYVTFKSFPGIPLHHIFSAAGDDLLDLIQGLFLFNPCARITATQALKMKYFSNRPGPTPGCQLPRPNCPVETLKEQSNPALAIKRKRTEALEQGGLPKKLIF
CDK7, sequence (P51946 whole entry partner): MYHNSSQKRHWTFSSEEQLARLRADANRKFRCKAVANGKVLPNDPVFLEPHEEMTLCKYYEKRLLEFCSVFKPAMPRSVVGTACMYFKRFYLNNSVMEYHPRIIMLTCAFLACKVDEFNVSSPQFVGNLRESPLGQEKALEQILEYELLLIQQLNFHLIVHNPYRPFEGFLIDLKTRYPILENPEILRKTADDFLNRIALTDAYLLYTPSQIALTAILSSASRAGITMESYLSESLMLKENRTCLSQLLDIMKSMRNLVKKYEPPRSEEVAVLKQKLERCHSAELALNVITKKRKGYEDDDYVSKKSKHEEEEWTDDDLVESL
CDK7, sequence (P51948 whole entry partner): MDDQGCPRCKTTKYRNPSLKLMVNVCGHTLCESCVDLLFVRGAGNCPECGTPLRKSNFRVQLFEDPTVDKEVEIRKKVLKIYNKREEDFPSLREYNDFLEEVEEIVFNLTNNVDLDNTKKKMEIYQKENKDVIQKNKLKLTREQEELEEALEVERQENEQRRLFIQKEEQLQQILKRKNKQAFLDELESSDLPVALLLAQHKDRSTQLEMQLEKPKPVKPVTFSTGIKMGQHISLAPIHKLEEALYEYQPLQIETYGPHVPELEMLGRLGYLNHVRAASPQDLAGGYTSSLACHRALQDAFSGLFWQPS
Description: For luminescence-based CDK7 kinase activity analysis wild type MED1-peptide “[sequence]” and mutant MED1-peptide “[sequence]” (GenScript, U2051EC280_1, U2051EC280_3) were used. Following the above protocol, briefly after 60 min incubation, post addition of CAK complex, ADP-GLOW reagent (Promega, V6930) was thawed and 25 ul of the reagent was added to each well, the plate was covered with aluminum foil and incubated at room temperature (RT) for 45 min. After the incubation Kinase-Detection reagent (BPS Bioscience, 79603) was thawed and 50 ul of the reagent was added to each well and incubated for another 45 min at RT under dark conditions. After 45 min incubation luminescence was measured using the microplate reader (Note: in luminescence-based kinase assay, CAK-complex+CTD-peptide (BPS Bioscience)+ATP was used as a positive control, were as CAK complex+Human MED1 protein without ATP was used as a negative control to subtract the background readings).

[2] = tested on: DHT-induced AR target genes; test: RNA-seq of DHT-stimulated VCaP and LNCaP cells; assay type: cell-based, human; settings: 10 nM DHT with 100 nM THZ1
Description: For AR signaling stimulation experiments, cells were plated in complete media at required confluency. After 24 h cells were washed with DPBS and cultured in RPMI/DMEM without Phenol Red (Invitrogen, 11835030) and 10% charcoal-dextran stripped FBS (Gemini BioProducts, 100-119) for 72 h. Cells were then stimulated with 10 nM DHT for the specific time points.
RNA-seq libraries were constructed using the TruSeq sample Prep Kit V2 (Illumina) according to the manufacturer's instructions. Briefly, 1 μg of purified RNA was poly-A selected and fragmented with fragmentation enzyme. […] The DNA library was quantitated using Qubit and normalized to 4 nM prior to pooling. […] Library pools were clustered and run on Nextseq500 platform (Illumina Inc.) with single-end reads of 75 bases.
Single-end sequencing reads were demultiplexed using Illumina bcl2fastq, quality checked using FASTQC (bioinformatics.babraham ac uk/projects/fastqc), and aligned to the GRCh37 (release 27) genome using the STAR v2.5.1 aligner, with default settings. The read statistics generated by STAR v2.5.1 was used to ensure that the aligned reads in all samples were over 90% of the total reads. […]
Genes differentially expressed between any two sets of treatment were determined using DESeq2 (bioconductor.org/packages/release/bioc/html/DESeq.html), a statistical tool that employs shrinkage estimates to compute fold changes. […]

CN(C)C/C=C/C(=O)Nc1ccc(C(=O)Nc2cccc(Nc3ncc(Cl)c(-c4c[nH]c5ccccc45)n3)c2)cc1 [THZ1]
endogenous MED1-AR complex formation (MED1-AR complex): loss of endogenous MED1-AR complex formation | genome-wide AR recruitment (ChIP-seq) [1]: significantly limited AR recruitment | genome-wide MED1 recruitment (ChIP-seq) [1]: blocked MED1 recruitment entirely | CDK7-mediated phosphorylation of the T1457 wildtype peptide (CDK7): inhibited by THZ1 treatment in a dose-dependent manner | genome-wide DHT-induced differentially expressed AR target genes [2]: completely reversed almost all
